Experimental data published in US7112612B2, “N-alkylated GABA compounds, processes for their preparation and their use as medicaments” (UCB S.A., priority 2000, dated 2006).

System: genetically sound-sensitive mice (audiogenic seizures)
Assay: audiogenic seizures test in sound-susceptible mice
Assay type: in vivo
Settings: Mus musculus, ip, 1 h; dose producing 50% protection against clonic convulsions relative to control; intraperitoneally 60 minutes before induction of audiogenic seizures (90 dB, 10–20 kHz, 30 seconds); Probit Analysis; read-out: Clonic Convulsion (ED50)
From the text: The potent activity of the compounds of formula (I) or (II), or their pharmaceutically acceptable salts, as anticonvulsants was evidenced by audiogenic seizures test induced in sound-susceptible mice. These examples illustrate the invention without in any way limiting its scope. The objective of the following pharmacological test is to evaluate the anticonvulsant potency of a compound in sound-susceptible mice, a genetic animal model with reflex seizures. In this model of primary generalised epilepsy, seizures are evoked without electrical or chemical stimulation and the seizure types are, at least in part, similar in their clinical phenomenology to seizures occurring in man (Löscher W. & Schmidt D., Epilepsy Res. (1998), 2, p. 145–181; Buchhalter J. R., Epilepsia (1993), 34, S31–S41). The results obtained with the tested compounds of formula (I) and (II) show a strong pharmacological effect (see Table 4).
In order to study the activity of the compounds of formula (I) and (II) including the (S) and (R) forms of ethyl 4-{[1-(aminocarbonyl)propyl]amino}butanoate, as anticonvulsant, the applicant performed out a series of experiments based on the audiogenic seizures test in mice.
The objective of the following pharmacological test is to evaluate the anticonvulsant potency of a compound in sound-susceptible mice, a genetic animal model with reflex seizures. In this model of primary generalised epilepsy, seizures are evoked without electrical or chemical stimulation and the seizure types are, at least in part, similar in their clinical phenomenology to seizures occurring in man (Löscher W. and Schmidt D., Epilepsy Res. (1998), 2, p. 145–181; Buchhalter J. R., Epilepsia (1993), 34, S31–S41).
Male or female genetically sound-sensitive mice (14–28 g; N=10), derived from a DBA (Dilute Brown Agouti) strain originally selected by Dr. Lehmann of the Laboratory of Acoustic Physiology (Paris) and bred in the UCB Pharma Sector husbandry unit since 1978, were used. The experimental design consisted of several groups, one group receiving the vehicle control and the other groups different doses of the test-compound. The compounds were administered intraperitoneally 60 minutes before the induction of audiogenic seizures.
For testing, the animals were placed in small cages, one mouse per cage, in a sound-attenuated chamber. After a period of orientation of 30 seconds, the acoustic stimulus (90 dB, 10–20 kHz) was delivered for 30 seconds via loud speakers positioned above each cage; During this interval, the mice were observed and the presence of the 3 phases of the seizure activity, namely wild running, clonic and tonic convulsions, was recorded. The proportion of mice protected against wild running, clonic and tonic convulsions, respectively, was calculated.
For active compounds, an ED50 value, i.e. the dose producing 50% protection relative to the control group, together with 95% confidence limits, was calculated using a Probit Analysis (SAS/STATR Software, Version 6.09, PROBIT procedure) of the proportions of protected mice for each of the 3 phases of the seizure activity.

Row | SMILES | ED50 [µmol/kg]
1 | CCCCCCCCOC(=O)CCCN[C@@H](CC)C(N)=O [L, octyl 4-{[(1S)-1-(aminocarbonyl)propyl]amino}butanoate] | 160
2 | CCC(NCCCC(=O)OC(C)(C)C)C(N)=O [H, tertiobutyl 4-{[(1S)-1-(aminocarbonyl)propyl]amino}butanoate] | 520
3 | CC[C@H](NCCCC(=O)OC)C(N)=O [F, methyl 4-{[(1S)-1-(aminocarbonyl)propyl]amino}butanoate] | 160
4 | CC[C@H](NCCCC(=O)OCc1ccccc1)C(N)=O [Compound N, benzyl 4-{[(1S)-1-(aminocarbonyl)propyl]amino)butanoate] | 220
5 | CC[C@H](NCCCC(=O)OC1CCCC1)C(N)=O [J, cyclopentyl 4-{[(1S)-1-(aminocarbonyl)propyl]amino}butanoate] | 340
6 | CC[C@H](NCCCC(=O)OCCC12CC3CC(CC(C3)C1)C2)C(N)=O [I, 2-(1-adamantyl)ethyl 4-{[(1S)-1-(aminocarbonyl)propyl]amino}butanoate] | 130
7 | CC[C@H](NCCCC(=O)SC(C)C)C(N)=O [W, S-isopropyl 4-{[(1S)-1-(aminocarbonyl)propyl]amino}butanethioate] | 540
8 | CCCC(CCC)COC(=O)CCCN[C@@H](CC)C(N)=O [O, 2-propylpentyl 4-{[(1S)-1-(aminocarbonyl)propyl]amino}butanoate] | 120
9 | CCCOC(=O)CCCN[C@@H](CC)C(N)=O [P, propyl 4-{[(1S)-1-(aminocarbonyl)propyl]amino}butanoate] | 200
10 | CCOC(=O)CCCNC(CC)C(N)=O (racemic) [C, ethyl 4-{[1-(aminocarbonyl)propyl]amino}butanoate] | 320
11 | CCCCOC(=O)CCCN[C@@H](CC)C(N)=O [K, butyl 4-{[(1S)-1-(aminocarbonyl)propyl]amino}butanoate] | 1000
12 | CC[C@H](NCCCC(=O)OC(C)C)C(N)=O [G, isopropyl 4-{[(1S)-1-(aminocarbonyl)propyl]amino}butanoate] | 150
13 | CCOC(=O)CCCN[C@@H](CC)C(N)=O [D, ethyl 4-{[(1S)-1-(aminocarbonyl)propyl]amino}butanoate] | 68
14 | CC[C@H](NCCCC(=O)OCC(C)C)C(N)=O [M, isobutyl 4-{[(1S)-1-(aminocarbonyl)propyl]amino}butanoate] | 360
